One test concerns the target rat EP4 receptor (Rattus norvegicus, UniProt P43114). Put plainly: EP4 receptor occupancy estimation from plasma exposure. The settings on record: 3 mg/kg; repeated doses. How it is done:
CR6086 concentrations in rat plasma were determined by high-performance liquid chromatography (Agilent 1200 series; Agilent Technologies, Santa Clara, CA, USA) coupled with a triple-quadrupole mass spectrometer (API 4000 QTRAP; SCIEX, Concord, ON, Canada). A ZORBAX SB-C18 2.0 × 50-mm, 3.5-μm column (Agilent Technologies) in isocratic conditions was used with mobile phase 0.1% formic acid in water/acetonitrile (68:32 vol/vol). The method was linear within the dynamic range 1.0–10,000 ng/ml (lower to upper limit of quantification). CR6086 plasma protein binding was determined in the 0.2–200 μM concentration range using [^14C]CR6086 and equilibrium dialysis. EP4 receptor occupancy (RO) was calculated on the basis of CR6086 concentrations according to the following formula: RO%=Cave/Cave+Ki×100,
An estimation of the receptor occupancy was attempted in the dose range investigated in CIA rats. Because the CIA experiments were conducted after repeated doses, whereas the exposure shown above was determined after a single dose of CR6086, receptor occupancy estimation in the CIA rats took into consideration the accumulation ratio of CR6086 after repeated doses averaging 1.19 in male rats. […] Thus, in our experiments, clinically relevant effects in the CIA rat model were observed starting from approximately 50% EP4 receptor occupancy. […]

The next test addresses M3 (Homo sapiens, UniProt P20309). The experiment in a line: Muscarinic acetylcholine receptor M3 binding. The conditions noted are these: [^3H]4-DAMP, Human recombinant CHO cells, read-out: CR6086 Activity at 10µM.
For another test, the target named is 5-HT3 (Homo sapiens, UniProt P46098). The experiment in a line: Serotonin receptor 5-HT3 binding. The conditions noted are these: [^3H]BRL 43694, Human recombinant CHO cells, read-out: CR6086 Activity at 10µM.
The target of the next test is ETB (Homo sapiens, UniProt P24530). Put plainly: Endothelin receptor ETB binding. The settings on record: [^125I]endothelin-1, Human recombinant CHO cells, read-out: CR6086 Activity at 10µM.
ETB, sequence (P24530 27-442): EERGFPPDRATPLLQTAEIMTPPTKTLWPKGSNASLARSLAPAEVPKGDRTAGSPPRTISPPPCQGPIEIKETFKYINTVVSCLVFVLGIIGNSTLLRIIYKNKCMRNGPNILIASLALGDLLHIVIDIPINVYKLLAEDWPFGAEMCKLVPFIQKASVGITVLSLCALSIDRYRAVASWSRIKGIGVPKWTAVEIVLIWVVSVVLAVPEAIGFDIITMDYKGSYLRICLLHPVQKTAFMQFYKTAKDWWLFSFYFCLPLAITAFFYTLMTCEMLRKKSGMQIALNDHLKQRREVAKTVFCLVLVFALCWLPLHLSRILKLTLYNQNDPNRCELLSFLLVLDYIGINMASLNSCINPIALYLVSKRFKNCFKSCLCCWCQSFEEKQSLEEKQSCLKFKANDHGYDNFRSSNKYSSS
The target in another test is CGRP (Homo sapiens, UniProt O60894+Q16602). Put plainly: CGRP receptor binding. The settings on record: [^125I]hCGRPα, Human recombinant CHO cells, read-out: CR6086 Activity at 10µM.
CGRP, sequence (Q16602 23-461): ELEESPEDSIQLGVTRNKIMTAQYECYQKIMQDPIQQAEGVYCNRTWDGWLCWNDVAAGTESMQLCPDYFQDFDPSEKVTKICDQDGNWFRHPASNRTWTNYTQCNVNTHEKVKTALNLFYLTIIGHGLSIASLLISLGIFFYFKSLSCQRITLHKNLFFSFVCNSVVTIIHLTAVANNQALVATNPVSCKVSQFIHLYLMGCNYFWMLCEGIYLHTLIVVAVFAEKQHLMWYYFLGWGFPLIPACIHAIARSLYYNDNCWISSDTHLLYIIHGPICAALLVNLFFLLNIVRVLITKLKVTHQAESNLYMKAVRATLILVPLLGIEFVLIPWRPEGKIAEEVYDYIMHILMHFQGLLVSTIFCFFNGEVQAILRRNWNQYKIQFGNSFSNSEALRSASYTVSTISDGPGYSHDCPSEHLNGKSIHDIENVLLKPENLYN
CGRP, sequence (O60894 27-148): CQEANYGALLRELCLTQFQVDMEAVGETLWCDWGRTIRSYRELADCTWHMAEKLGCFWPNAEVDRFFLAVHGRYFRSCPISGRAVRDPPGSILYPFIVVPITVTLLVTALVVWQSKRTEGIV
Another test concerns VEGF gene expression. Put plainly: VEGF gene expression in THP-1 cells differentiated to macrophages. The class given is cell-based. The conditions noted are these: Homo sapiens, LPS 10 ng/ml + PGE2 10 nM, read-out: IC50 transcription of VEGF. How it is done: (§1) The human monocyte cell line THP-1 was obtained from the ATCC and was grown according to the instructions provided. THP-1 monocytic cells were differentiated to macrophages with 100 nM phorbol 12-myristate 13-acetate (PMA) for 4 days. Macrophages were then stimulated with lipopolysaccharide (LPS) 10 ng/ml and PGE2 10 nM for 3 or 24 h. Total RNA was purified using the ABI Prism 6100 Nucleic Acid PrepStation (Applied Biosystems, Foster City, CA, USA) and retrotranscribed using the High-Capacity cDNA Reverse Transcription Kit (Thermo Fisher Scientific). RT-PCR analysis was performed using the Applied Biosystems 7500 Fast Real-Time PCR System using specific TaqMan assays (number Hs00174131_m1 for IL-6, number Hs00900054_m1 for vascular endothelial growth factor A [VEGFA]; Thermo Fisher Scientific) and, as an endogenous control, the 18S Pre-Developed TaqMan® Assay (Thermo Fisher Scientific). The data analysis, with normalisation on 18S amplified values, was done following Thermo Fisher Scientific’s specific instructions for gene expression relative quantification. All individual data are the result of at least three different analyses for each sample.

A further test deals with 5-HT1A (Homo sapiens, UniProt P08908). The experiment in a line: Serotonin receptor 5-HT1A binding. The conditions noted are these: [^3H]8-OH-DPAT, Human recombinant HEK-293 cells, read-out: CR6086 Activity at 10µM.
5-HT1A, sequence (P08908 whole entry): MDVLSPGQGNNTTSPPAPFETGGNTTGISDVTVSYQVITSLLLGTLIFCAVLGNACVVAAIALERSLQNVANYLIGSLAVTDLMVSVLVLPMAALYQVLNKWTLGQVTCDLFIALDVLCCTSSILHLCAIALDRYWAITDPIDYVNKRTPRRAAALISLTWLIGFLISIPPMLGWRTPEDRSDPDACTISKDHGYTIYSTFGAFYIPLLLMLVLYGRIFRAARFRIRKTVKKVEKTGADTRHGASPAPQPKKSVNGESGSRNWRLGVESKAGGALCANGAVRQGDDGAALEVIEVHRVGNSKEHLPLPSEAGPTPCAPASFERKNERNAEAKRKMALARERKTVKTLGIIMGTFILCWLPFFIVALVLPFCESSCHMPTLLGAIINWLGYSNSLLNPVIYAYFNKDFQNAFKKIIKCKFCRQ
The next test concerns the target H1 (Homo sapiens, UniProt P35367). The experiment in a line: Histamine receptor H1 binding. The settings on record: [^3H]pyrilamine, Human recombinant HEK-293 cells, read-out: CR6086 Activity at 10µM.
In a further test the test system is IL-6 gene expression. Put plainly: IL-6 gene expression in THP-1 cells differentiated to macrophages. The class given is cell-based. The settings on record: Homo sapiens, LPS 10 ng/ml + PGE2 10 nM, read-out: IC50 transcription of IL-6. The method, then:
as §1

In another test the target is AT2 (Homo sapiens, UniProt P50052). The experiment in a line: Angiotensin receptor AT2 binding. The conditions noted are these: [^125I]CGP 42112A, Human recombinant HEK-293 cells, read-out: CR6086 Activity at 10µM.
AT2, sequence (P50052 whole entry): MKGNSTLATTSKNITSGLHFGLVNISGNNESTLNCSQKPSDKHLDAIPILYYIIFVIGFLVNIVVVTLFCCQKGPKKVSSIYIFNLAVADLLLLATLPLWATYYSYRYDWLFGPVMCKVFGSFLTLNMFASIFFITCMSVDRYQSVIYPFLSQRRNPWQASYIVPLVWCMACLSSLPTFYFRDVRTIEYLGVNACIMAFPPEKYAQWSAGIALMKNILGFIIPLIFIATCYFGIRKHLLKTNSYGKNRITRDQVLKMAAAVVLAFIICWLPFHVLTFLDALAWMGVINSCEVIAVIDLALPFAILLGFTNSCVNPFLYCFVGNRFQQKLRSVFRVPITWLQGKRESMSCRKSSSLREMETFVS
The next test deals with NTS1 (NT1) (Homo sapiens, UniProt P30989). The experiment in a line: NTS1 receptor binding. The conditions noted are these: [^125I]Tyr^3-neurotensin, Human recombinant CHO cells, read-out: CR6086 Activity at 10µM.
NTS1 (NT1), sequence (P30989 whole entry): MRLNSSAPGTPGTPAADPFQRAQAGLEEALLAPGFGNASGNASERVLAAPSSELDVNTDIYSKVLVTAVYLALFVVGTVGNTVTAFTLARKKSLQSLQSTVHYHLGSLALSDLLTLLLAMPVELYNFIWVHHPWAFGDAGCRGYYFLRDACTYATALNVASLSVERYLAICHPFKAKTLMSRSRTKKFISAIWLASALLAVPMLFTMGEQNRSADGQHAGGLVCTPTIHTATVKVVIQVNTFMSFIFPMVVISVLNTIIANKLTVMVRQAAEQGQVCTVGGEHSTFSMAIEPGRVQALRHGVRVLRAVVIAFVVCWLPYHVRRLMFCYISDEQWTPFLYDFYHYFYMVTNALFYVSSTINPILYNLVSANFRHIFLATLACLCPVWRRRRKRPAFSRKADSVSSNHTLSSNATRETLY
A further test addresses CXCR2 (IL-8B) (Homo sapiens, UniProt P25025). The experiment in a line: CXCR2 receptor binding. The conditions noted are these: [^125I]IL-8, Human recombinant HEK-293 cells, read-out: CR6086 Activity at 10µM.
The next test has as its target D2S (Homo sapiens, UniProt P14416). The experiment in a line: Dopamine receptor D2S binding. The conditions noted are these: [^3H]methyl-spiperone, Human recombinant HEK-293 cells, read-out: CR6086 Activity at 10µM.
The subject of the next test is IL-17 release. Put plainly: IL-17 release from human Th17 cells. The conditions noted are these: Homo sapiens; at 1 μM; 48 and 72 h. It is filed as cell-based. How it is done:
PBMCs were purified using Histopaque. CD4^+CD45^+ naive T cells were indirectly selected in a magnetic field (MACS; Miltenyi Biotec). Purified CD4^+ cells were subsequently cultured for 7 days in differentiation medium (RPMI 1640 + FBS 10%, IL-6 30 ng/ml, transforming growth factor [TGF]-β 2.25 ng/ml, IL-23 30 ng/ml, IL-1β 20 ng/ml, anti-interferon (IFN)-γ 1 ng/ml and anti-IL-4 2.5 ng/ml). Th17 cell expansion was stimulated by addition of anti-CD3/[…]anti-CD28 beads to the medium with a cell-to-beads ratio of 1:2. Th17 cells were stimulated with IL-6 30 ng/ml, TGF-β 2.25 ng/ml, IL-23 30 ng/ml, IL-1β 20 ng/ml and PGE2 10 nM for 48 h in the presence of CR6086 (0.03–10 μM) or naproxen (1–10 μM). IL-17 release was measured by ELISA (Abcam, Cambridge, UK).

Another test addresses TP (TXA2/PGH2) (Homo sapiens, UniProt P21731). The experiment in a line: Eicosanoid receptor TP binding. The settings on record: [^3H]SQ 29548, HEK-293 cells, read-out: CR6086 Activity at 10µM.

M3, sequence (P20309 whole entry): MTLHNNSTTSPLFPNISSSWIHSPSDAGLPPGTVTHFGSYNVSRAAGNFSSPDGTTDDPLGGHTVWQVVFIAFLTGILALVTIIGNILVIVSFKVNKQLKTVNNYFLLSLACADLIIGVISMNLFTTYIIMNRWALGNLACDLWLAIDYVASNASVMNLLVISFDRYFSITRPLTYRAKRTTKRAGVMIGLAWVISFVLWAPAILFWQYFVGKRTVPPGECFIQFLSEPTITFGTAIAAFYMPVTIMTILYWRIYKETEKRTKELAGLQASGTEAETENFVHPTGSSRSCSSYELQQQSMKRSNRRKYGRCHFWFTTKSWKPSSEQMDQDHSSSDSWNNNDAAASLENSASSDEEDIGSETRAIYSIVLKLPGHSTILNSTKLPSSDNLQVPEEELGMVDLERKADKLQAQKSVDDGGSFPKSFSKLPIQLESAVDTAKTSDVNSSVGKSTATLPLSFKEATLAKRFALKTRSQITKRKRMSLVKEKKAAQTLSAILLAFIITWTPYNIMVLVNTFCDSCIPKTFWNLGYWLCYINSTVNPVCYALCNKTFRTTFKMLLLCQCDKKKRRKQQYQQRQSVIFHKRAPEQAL
D2S, sequence (P14416 1-414 isoform P14416-2): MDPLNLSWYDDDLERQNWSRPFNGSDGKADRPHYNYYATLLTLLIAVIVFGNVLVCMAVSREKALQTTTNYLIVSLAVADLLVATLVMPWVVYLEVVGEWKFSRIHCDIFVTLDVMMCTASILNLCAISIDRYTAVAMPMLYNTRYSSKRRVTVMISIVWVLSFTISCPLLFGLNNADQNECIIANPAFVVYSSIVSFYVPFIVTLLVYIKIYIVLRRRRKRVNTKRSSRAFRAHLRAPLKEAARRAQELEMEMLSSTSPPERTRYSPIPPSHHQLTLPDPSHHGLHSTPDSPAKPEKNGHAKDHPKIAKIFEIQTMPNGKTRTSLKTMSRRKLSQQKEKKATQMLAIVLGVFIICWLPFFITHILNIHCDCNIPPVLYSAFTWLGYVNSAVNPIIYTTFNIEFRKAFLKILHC
rat EP4 receptor, sequence (P43114 whole entry): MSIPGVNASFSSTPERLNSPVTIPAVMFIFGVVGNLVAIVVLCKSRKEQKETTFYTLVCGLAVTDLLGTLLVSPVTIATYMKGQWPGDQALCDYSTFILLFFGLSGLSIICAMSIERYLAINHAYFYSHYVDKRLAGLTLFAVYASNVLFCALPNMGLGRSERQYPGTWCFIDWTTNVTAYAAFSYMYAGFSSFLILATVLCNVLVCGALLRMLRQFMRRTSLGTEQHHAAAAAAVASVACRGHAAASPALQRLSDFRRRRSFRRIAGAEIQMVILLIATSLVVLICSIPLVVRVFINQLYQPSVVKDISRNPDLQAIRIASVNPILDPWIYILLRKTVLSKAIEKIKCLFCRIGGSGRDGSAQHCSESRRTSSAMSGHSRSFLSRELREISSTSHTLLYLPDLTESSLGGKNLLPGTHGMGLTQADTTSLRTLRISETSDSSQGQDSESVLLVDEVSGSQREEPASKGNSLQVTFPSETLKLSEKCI
H1, sequence (P35367 whole entry): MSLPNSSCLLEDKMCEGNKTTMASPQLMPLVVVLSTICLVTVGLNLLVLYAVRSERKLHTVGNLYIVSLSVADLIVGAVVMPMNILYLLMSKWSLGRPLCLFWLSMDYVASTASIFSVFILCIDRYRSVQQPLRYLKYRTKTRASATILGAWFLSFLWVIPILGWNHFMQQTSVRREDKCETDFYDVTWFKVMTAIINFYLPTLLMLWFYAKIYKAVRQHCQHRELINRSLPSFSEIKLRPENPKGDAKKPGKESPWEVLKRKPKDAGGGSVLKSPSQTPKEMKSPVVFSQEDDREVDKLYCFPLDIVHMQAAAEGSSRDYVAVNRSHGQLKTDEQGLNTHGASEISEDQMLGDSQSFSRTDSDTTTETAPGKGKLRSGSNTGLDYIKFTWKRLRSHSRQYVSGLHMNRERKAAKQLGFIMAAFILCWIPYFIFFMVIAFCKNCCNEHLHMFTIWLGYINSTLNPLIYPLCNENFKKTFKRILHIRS
CXCR2 (IL-8B), sequence (P25025 whole entry): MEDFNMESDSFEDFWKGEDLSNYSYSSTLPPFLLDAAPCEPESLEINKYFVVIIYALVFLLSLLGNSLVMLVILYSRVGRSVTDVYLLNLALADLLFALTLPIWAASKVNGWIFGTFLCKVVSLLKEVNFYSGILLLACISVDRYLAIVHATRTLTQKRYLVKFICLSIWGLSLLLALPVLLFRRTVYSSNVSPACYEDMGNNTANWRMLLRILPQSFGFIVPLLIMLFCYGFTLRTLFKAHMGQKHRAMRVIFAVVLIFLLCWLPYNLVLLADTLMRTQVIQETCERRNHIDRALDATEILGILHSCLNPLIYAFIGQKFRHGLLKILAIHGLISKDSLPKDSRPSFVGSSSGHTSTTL
TP (TXA2/PGH2), sequence (P21731 whole entry): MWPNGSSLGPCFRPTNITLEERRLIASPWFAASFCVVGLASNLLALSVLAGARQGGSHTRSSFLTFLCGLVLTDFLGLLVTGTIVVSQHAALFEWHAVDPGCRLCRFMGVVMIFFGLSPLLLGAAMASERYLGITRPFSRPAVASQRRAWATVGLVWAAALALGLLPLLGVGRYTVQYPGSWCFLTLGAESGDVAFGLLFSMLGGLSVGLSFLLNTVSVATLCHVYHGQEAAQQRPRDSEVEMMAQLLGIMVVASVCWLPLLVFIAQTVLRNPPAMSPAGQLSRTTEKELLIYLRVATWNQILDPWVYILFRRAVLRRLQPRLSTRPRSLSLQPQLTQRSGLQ

As to `O=C([O-])c1ccc(C2(NC(=O)[C@H]3CC4(CCN3Cc3ccc(C(F)(F)F)cc3)CC4)CC2)cc1.[Na+]` [CR6086, Sodium (R)-4-(1-(6-(4-(trifluoromethyl)benzyl)-6-azaspiro[2.5]octane-5-carboxamido)cyclopropyl)benzoate], the “estimated EP4 receptor occupancy” value at rat EP4 receptor was “approximately 50%”. For the same molecule, the inhibition at 10 µM at M3, at 5-HT3, at ETB, at CGRP, at 5-HT1A and at H1 was less than 20% throughout. Further, the inhibition at 10 µM on AT2, on NTS1 (NT1), at CXCR2 (IL-8B), on D2S and on TP (TXA2/PGH2) was less than 20% in each case. The results for the IC50 in the test with VEGF gene expression and in the test on IL-6 gene expression were 25 nM and 70 nM, respectively. Moreover, the inhibition at 1 µM in the test with IL-17 release was determined as 100%.

(Values after article PMC5831858, “Pharmacological characterisation of CR6086, a potent prostaglandin E2 receptor 4 antagonist, as a new potential disease-modifying anti-rheumatic drug” (Arthritis Research & Therapy, 2018).)
